This note sets out measurements from ChEMBL document CHEMBL5543151, “Rational Design of a Novel Class of Human ClpP Agonists through a Ring-Opening Strategy with Enhanced Antileukemia Activity” (J Med Chem, 2024).

The target of experiment [1] is T1, ATP-dependent Clp protease proteolytic subunit, mitochondrial (Homo sapiens, UniProt Q16740). As to conditions: filed as agonist, dose 10.0 µM, time 2.0 hrs.
For experiment [2], the system named is MV4-11. As to the kind of experiment: Anti-leukemia activity against human MV4-11 cells assessed as decrease in cell proliferation incubated for 72 hrs by CCK-8 assay. The format is functional, cell-based. The conditions noted are these: MV4-11, 72 h.
For experiment [3], the system named is MV4-11. Briefly: Potency index, ratio of ONC201 IC50 to test compound IC50 for anti-leukemia activity against human MV4-11 cells assessed as decrease in cell proliferation incubated for 72 hrs by CCK-8 assay. The format is functional. A general note: Tetrazolium assays rely on reduction of a dye to a coloured formazan, in cell work by metabolically active cells.

Experiment [4] concerns the target T1, ATP-dependent Clp protease proteolytic subunit, mitochondrial. As to the kind of experiment: Agonist activity at human Casein lysing protease P (HsClpP) assessed as proteolytic activity by measuring alpha-casein hydrolysis measured after 2 hrs incubation by fluorescence assay.
For experiment [5] the target is unchanged. Briefly: Binding affinity to human Casein lysing protease P (HsClpP) assessed as change in melting temperature measured after 2 hrs differential scanning fluorimetry (DSF) assay. (In general: Differential scanning fluorimetry follows unfolding on heating by fluorescence.)
Experiment [6] has as its system MV4-11. As to the kind of experiment: Anti-leukemia activity against human MV4-11 cells assessed as decrease in cell proliferation incubated for 24 hrs by CCK-8 assay. The conditions noted are these: MV4-11, 24 h. Type of experiment: functional, cell-based.
In experiment [7] the test system is MV4-11. As to the kind of experiment: Anti-leukemia activity against human MV4-11 cells assessed as decrease in cell proliferation incubated for 48 hrs by CCK-8 assay. The format is functional, cell-based. As to conditions: MV4-11, 48 h.
A further experiment deals with MOLM-13. As to the kind of experiment: Anti-leukemia activity against human MOLM-13 cells assessed as decrease in cell proliferation incubated for 72 hrs by CCK-8 assay. Type of experiment: functional, cell-based. The conditions noted are these: MOLM-13, 72 h.
The test system of a further experiment is U-937. Briefly: Anti-leukemia activity against human U-937 cells assessed as decrease in cell proliferation incubated for 72 hrs by CCK-8 assay. Type of experiment: functional, cell-based. The conditions noted are these: U-937, 72 h.
The next experiment concerns OCI-AML2. Briefly: Anti-leukemia activity against human OCI-AML2 cells assessed as decrease in cell proliferation incubated for 72 hrs by CCK-8 assay. The format is functional, cell-based. The conditions noted are these: OCI-AML2, 72 h.
A further experiment relates to THP-1. Briefly: Anti-leukemia activity against human THP-1 cells assessed as decrease in cell proliferation incubated for 72 hrs by CCK-8 assay. The conditions noted are these: THP-1, 72 h. The format is functional, cell-based.
In another experiment the test system is HL-60. As to the kind of experiment: Anti-leukemia activity against human HL-60 cells assessed as decrease in cell proliferation incubated for 72 hrs by CCK-8 assay. The format is functional, cell-based. The conditions noted are these: HL-60, 72 h.
A further experiment relates to Kasumi 1. Briefly: Anti-leukemia activity against human Kasumi 1 cells assessed as decrease in cell proliferation incubated for 72 hrs by CCK-8 assay. The format is functional, cell-based. The conditions noted are these: Kasumi 1, 72 h.
The subject of the next experiment is K562. Briefly: Anti-leukemia activity against human K562 cells assessed as decrease in cell proliferation incubated for 72 hrs by CCK-8 assay. The format is functional, cell-based. The conditions noted are these: K562, 72 h.
Experiment [8] concerns MV4-11. Briefly: Induction of apoptosis in human MV4-11 cells assessed as increase in apoptotic (annexin V-positive) cell proportions by measuring apoptotic rate at 120 nM measured after 48 hrs by Annexin V-647/P1 apoptosis detection assay relative to control. The format is functional.

The term ΔTm denotes the change in melting temperature against a reference sample. A word on the IC50: it is the concentration that inhibits the measured activity by half.

Each structure is given as a SMILES string.

T1 sequence (Q16740 whole entry): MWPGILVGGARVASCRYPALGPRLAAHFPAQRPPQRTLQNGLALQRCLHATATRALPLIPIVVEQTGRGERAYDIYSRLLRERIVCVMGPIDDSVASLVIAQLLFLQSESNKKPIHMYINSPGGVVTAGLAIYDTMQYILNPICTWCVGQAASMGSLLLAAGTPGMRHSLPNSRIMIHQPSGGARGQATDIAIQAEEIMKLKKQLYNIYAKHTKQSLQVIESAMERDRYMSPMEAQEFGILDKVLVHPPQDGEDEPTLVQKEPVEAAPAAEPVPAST

For the molecule `N#Cc1cccc(CN2CCc3[nH]c(NCc4ccc(F)cc4)nc(=O)c3C2)c1` [listing 1 of 2 here], in experiment [1], the ΔTm came to 18.3 °C.
On to `N#Cc1cccc(CN2CCc3[nH]c(NCc4ccc(F)cc4)nc(=O)c3C2)c1` [listing 2 of 2 here], for which the IC50 amounted to 30 nM with MV4-11 [2]; 30.1 nM in the experiment on MOLM-13; 78.2 nM in the experiment with U-937; 39.2 nM in the experiment with OCI-AML2; 79.7 nM with THP-1; 40.5 nM with HL-60. Besides, the 50% inhibitory concentration (IC50) with Kasumi 1 came to 41.1 nM; with K562, 132 nM. Besides, the “Ratio IC50” value with MV4-11 [3] amounted to 20. Moreover, the EC50 in experiment [4] was determined as 970 nM; in [5] it was 1370 nM; in the experiment with MV4-11 [6] it was 5200 nM; in the experiment on MV4-11 [7] it was 78 nM. For the same molecule, the Activity with MV4-11 [8] is listed as ~80%.
